Experimental data published in US20180168208A1 (priority 2014, published 2018).
Counter-ions that a name gives are not always drawn. Like-named read-outs stand apart in the source and are kept apart here.

Legend:
[1] = molecular target: T1, cat T1R1/T1R3 receptor (Felis catus, UniProt A0ABI7Z2I4); assay: cell-based; conditions: for function as activators of T1R1/T1R3 (in words): in the presence of alanine
T1 sequence (A0ABI7Z2I4 171-420): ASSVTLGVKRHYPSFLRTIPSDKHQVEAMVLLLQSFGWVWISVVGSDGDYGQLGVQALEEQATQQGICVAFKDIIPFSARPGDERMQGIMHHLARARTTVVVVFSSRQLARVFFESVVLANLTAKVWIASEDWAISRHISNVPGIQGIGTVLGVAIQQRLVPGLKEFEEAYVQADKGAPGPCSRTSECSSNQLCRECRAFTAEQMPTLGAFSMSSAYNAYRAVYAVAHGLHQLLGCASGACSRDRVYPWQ
T1 sequence (Q49KI5 25-865 E206Q/N523D/F654L partner): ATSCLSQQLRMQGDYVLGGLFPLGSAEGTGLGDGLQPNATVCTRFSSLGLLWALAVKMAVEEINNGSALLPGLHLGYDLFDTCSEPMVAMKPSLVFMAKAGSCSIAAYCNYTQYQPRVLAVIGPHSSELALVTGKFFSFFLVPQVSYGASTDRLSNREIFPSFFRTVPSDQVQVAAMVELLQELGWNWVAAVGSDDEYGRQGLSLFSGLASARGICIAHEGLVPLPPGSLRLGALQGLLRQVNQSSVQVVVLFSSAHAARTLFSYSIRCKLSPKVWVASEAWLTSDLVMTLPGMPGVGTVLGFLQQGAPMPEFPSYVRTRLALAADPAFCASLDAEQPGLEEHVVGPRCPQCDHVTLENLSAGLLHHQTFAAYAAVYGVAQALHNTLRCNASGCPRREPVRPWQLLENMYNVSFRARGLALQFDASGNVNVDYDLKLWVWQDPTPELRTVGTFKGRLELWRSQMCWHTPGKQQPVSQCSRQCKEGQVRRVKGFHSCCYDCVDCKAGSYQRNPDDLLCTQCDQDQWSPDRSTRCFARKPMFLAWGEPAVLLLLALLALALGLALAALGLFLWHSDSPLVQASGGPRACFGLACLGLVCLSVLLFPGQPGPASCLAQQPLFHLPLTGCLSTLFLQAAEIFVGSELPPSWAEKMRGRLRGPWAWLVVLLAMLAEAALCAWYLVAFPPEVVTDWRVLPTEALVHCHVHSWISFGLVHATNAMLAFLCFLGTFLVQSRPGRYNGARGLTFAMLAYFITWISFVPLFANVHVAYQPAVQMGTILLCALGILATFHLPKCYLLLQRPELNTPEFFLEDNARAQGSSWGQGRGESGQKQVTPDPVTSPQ
Source text: HEK293 cells that stably express T1R3 and inducibly express T1R1 were exposed to nucleotide derivatives alone or in combination with one or more amino acids and/or one or more nucleotides to activate the umami receptor. Activation of the T1R1/T1R3 receptor was detected by a change in intracellular calcium levels using a calcium sensitive fluorescent dye and/or a luminescent reporter system. Cells that express T1R3 but not T1R1 were used as a control. A FLIPR® Tetra or a FlexStation® 3 was used for data capture.

[2] = molecular target: T1R1/T1R3 receptor (Felis catus, UniProt E3UMS2); assay: cell-based; type: cell-based
Source text: HEK293 cells that stably express T1R3 and inducibly express T1R1 were exposed to transmembrane compounds alone or in combination with one or more amino acids and/or one or more nucleotides to activate the umami receptor. Activation of the T1R1/T1R3 receptor was detected by a change in intracellular calcium levels using a calcium sensitive fluorescent dye. Cells that express T1R3 but not T1R1 were used as a control. A FLIPR® Tetra or a FlexStation® 3 was used for data capture.
In each experiment, serial dilutions of up to 10 mM of the transmembrane compound were added to the T1R1/T1R3-expressing cells.

[3] = +Alanine (20 mM), Table 18, read-out: EC50 +Alanine
[4] = EC50 + IMP, + IMP (0.2 mM), Table 17
[5] = EC50 +Alanine + IMP, +Alanine (20 mM) + IMP (0.2 mM), Table 18
[6] = EC50 +IMP, +IMP (0.2 mM), Table 18
[7] = compound alone in buffer, Table 17, read-out: EC50 + buffer (alone)
[8] = compound alone in buffer, Table 18, read-out: EC50 +buffer (alone)

SMILES: Nc1ncnc2c1ncn2C1CC(O)C(COP(O)(O)=S)O1 (stereo not shown) [2′-Deoxyadenosine-5′-O-monophosphorothioate]
- Activity [1]: active
- Threshold [1]: 0.015 mM

SMILES: NC(=O)c1ncn(C2OC(COP(=O)(O)O)C(O)C2O)n1 (stereo not shown) [Ribavirin 5′-Monophosphate]
- Activity [1]: active
- Threshold [1]: 0.175 mM

SMILES: Nc1ncnc2c1ncn2C1OC(COP(=O)(O)O)C(OP(=O)(O)O)C1O (stereo not shown) [Adenosine 3′,5′-diphosphate sodium salt, adenosine 3′, 5′ diphosphate sodium salt]
- Activity [1]: active
- Threshold [1]: 0.00025 mM

SMILES: O=c1ccn([C@H]2C[C@H](O)[C@@H](COP(O)(O)=S)O2)c(=O)[nH]1 [2′-Deoxyuridine-5′-O-monophosphorothioate]
- EC50 [1]: > 30000 µM

SMILES: CNc1ncnc2c1ncn2[C@H]1C[C@H](OP(=O)(O)O)[C@@H](COP(=O)(O)O)O1 [MRS 2179 ammonium salt hydrate, 2′-Deoxy-N^6-methyl adenosine 3,5′-diphosphate diammonium salt]
- Activity [1]: active

SMILES: Nc1ncnc2c1ncn2[C@@H]1O[C@H](COP(O)(O)=S)[C@@H](O)[C@H]1O [Adenosine-5′-O-monophosphorothioate]
- Activity [1]: active
- EC50 [1]: 11 µM
- Threshold [1]: 0.003 mM

SMILES: Nc1nc2c(ncn2[C@@H]2O[C@H](COP(=O)(O)OP(=O)(O)O)[C@@H](O)[C@H]2O)c(=S)[nH]1 [6-Thioguanosine-5′-O-disphosphate]
- Threshold [1]: 0.03 mM

SMILES: O=P(O)(O)OCC1OC(n2cnc3c(Cl)ncnc32)C(O)C1O (stereo not shown) [6-chloropurineriboside-5′-O-monophosphate]
- EC50 [1]: 2 µM
- Threshold [1]: 0.0005 mM
- function as activators of T1R1/T1R3 (in words) [1]: activators of the T1R1/T1R3 receptor

SMILES: Nc1nc2c(ncn2[C@@H]2O[C@H](COP(=O)(O)OP(=O)(O)OP(=O)(O)O)[C@@H](O)[C@H]2O)c(=O)[nH]1 [Guanosine 5′-triphosphate]
- Activity [1]: active
- EC50 [1]: 700 µM
- Max resp. (ΔF/F) [1]: 1.8075 ΔF/F
- Max. resp. % of IMP [1]: 145.5 % of IMP
- Threshold [1]: 0.175 mM

SMILES: Nc1nc2c(ncn2C2CC(OP(=O)(O)O)C(COP(=O)(O)O)O2)c(=O)[nH]1 (stereo not shown) [2′-Deoxyguanosine-3′,5′-O-bisphosphate]
- Activity [1]: active
- Max resp. (ΔF/F) [1]: 1.8925 ΔF/F
- Max. resp. % of IMP [1]: 152.3 % of IMP
- Threshold [1]: 0.005 mM
- function as activators of T1R1/T1R3 (in words) [1]: activators of T1R1/T1R3

SMILES: O=c1ccn([C@H]2O[C@@H](COP(=O)(O)O)[C@H](O)[C@@H]2O)c(=O)[nH]1 (stereo in doubt) [uridine monophosphate]
- Activity [1]: active
- EC50 [1]: > 30000 µM
- Threshold [1]: 3.000 mM

SMILES: Nc1nc2c(ncn2C2CC(O)C(COP(O)(O)=S)O2)c(=O)[nH]1 (stereo not shown) [2′-Deoxyguanosine-5′-O-monophosphorothioate]
- Activity [1]: active
- Max resp. (ΔF/F) [1]: 1.0775 ΔF/F
- Max. resp. % of IMP [1]: 86.7 % of IMP
- Threshold [1]: 0.0025 mM
- function as activators of T1R1/T1R3 (in words) [1]: activators of T1R1/T1R3

SMILES: CCC(CC)NC(=O)/C=C/c1ccc(OC)cc1 [(E)-3-(4-methoxyphenyl)-N-(pentan-3-yl)acrylamide]
- EC50 [2]: 80 ± 10 µM
- Thres +Alanine ([2]; + Alanine (20 nM), Table 17): 0.148 mM
- Max resp % of IMP + Alanine ([2]; + Alanine, Table 17): 64.1 % of IMP
- Max resp ΔF/F +Alanine ([2]; + Alanine, Table 17): 0.7
- Max resp % of ALa + IMP ([2]; + IMP (0.2 mM), Table 17): 171.7 % of ALa
- Thres + IMP ([2]; + IMP (0.2 mM), Table 17): 0.0375 mM
- Max resp ΔF/F +Alanine ([2]; +Alanine (20 mM), Table 18): 0.7
- Thres +Alanine ([2]; +Alanine (20 mM), Table 18): 0.148 mM
- EC50 [2, 3]: 590 µM
- Max resp % of Ala +IMP ([2]; +IMP (0.2 mM), Table 18): 171.7 % of Ala
- Max resp ΔF/F +IMP ([2]; +IMP (0.2 mM), Table 18): 1.443
- EC50 ([2]; EC50 + Alanine + IMP, + Alanine (20 mM) + IMP (0.2 mM), Table 17): 80 µM
- EC50 [2, 4]: 150 µM
- EC50 [2, 5]: 80 µM
- EC50 [2, 6]: 150 µM
- EC50 ([2]; EC50 - with IMP (0.2 mM), with 0.2 mM IMP): 150 ± 20 µM
- EC50 ([2]; alone in buffer, read-out: EC50 - alone): 450 ± 10 µM
- EC50 [2, 7]: 450 µM
- EC50 [2, 8]: 450 µM
- EC50 ([2]; read-out: EC50 + Alanine): 590 µM

SMILES: O=C(Nc1ccccc1Br)N[C@@H]1c2ccccc2C[C@@H]1O (stereo in doubt) [1-(2-bromophenyl)-3-((1R,2S)-2-hydroxy-2,3-dihydro-1H-inden-1-yl)urea]
- Thres +Alanine ([2]; + Alanine (20 nM), Table 17): 3 mM
- Max resp % of IMP + Alanine ([2]; + Alanine, Table 17): 33.0 % of IMP
- Max resp ΔF/F +Alanine ([2]; + Alanine, Table 17): 0.3
- EC50 ([2]; + Alanine, Table 17, read-out: EC50 + Alanine): > 3000 µM
- Max resp % of ALa + IMP ([2]; + IMP (0.2 mM), Table 17): 44.9 % of ALa
- Thres + IMP ([2]; + IMP (0.2 mM), Table 17): 3 mM
- Max resp ΔF/F +Alanine ([2]; +Alanine (20 mM), Table 18): 0.3
- Thres +Alanine ([2]; +Alanine (20 mM), Table 18): 3 mM
- EC50 [2, 3]: > 3000 µM
- Max resp % of Ala +IMP ([2]; +IMP (0.2 mM), Table 18): 44.9 % of Ala
- Max resp ΔF/F +IMP ([2]; +IMP (0.2 mM), Table 18): 0.378
- EC50 [2, 4]: > 3000 µM
- EC50 [2, 5]: > 3000 µM
- EC50 [2, 6]: > 3000 µM
- EC50 [2, 7]: > 3000 µM
- EC50 [2, 8]: > 3000 µM

SMILES: COC(=O)C(NC(=O)/C=C/c1cccs1)C(C)C (stereo not shown) [(E)-methyl 3-methyl-2-(3-(thiophen-2-yl)acrylamido)butanoate]
- Thres +Alanine ([2]; + Alanine (20 nM), Table 17): 10 mM
- Max resp % of IMP + Alanine ([2]; + Alanine, Table 17): 9.5 % of IMP
- Max resp ΔF/F +Alanine ([2]; + Alanine, Table 17): 0.1175
- Max resp % of ALa + IMP ([2]; + IMP (0.2 mM), Table 17): 59.9 % of ALa
- Thres + IMP ([2]; + IMP (0.2 mM), Table 17): 1 mM
- Max resp ΔF/F +Alanine ([2]; +Alanine (20 mM), Table 18): 0.1175
- Thres +Alanine ([2]; +Alanine (20 mM), Table 18): 10 mM
- Max resp % of Ala +IMP ([2]; +IMP (0.2 mM), Table 18): 59.9 % of Ala
- Max resp ΔF/F +IMP ([2]; +IMP (0.2 mM), Table 18): 0.7375
- EC50 [2, 4]: > 10000 µM
- EC50 [2, 5]: > 10000 µM
- EC50 [2, 6]: > 10000 µM

SMILES: CC1CCCC(NC(=O)c2ccc3c(c2)OCO3)C1C (stereo not shown) [N-(2,3-dimethylcyclohexyl) benzo[d][1,3]dioxole-5-carboxamide]
- Thres +Alanine ([2]; + Alanine (20 nM), Table 17): 3 mM
- Max resp % of IMP + Alanine ([2]; + Alanine, Table 17): 18.1 % of IMP
- Max resp ΔF/F +Alanine ([2]; + Alanine, Table 17): 0.225
- Max resp % of ALa + IMP ([2]; + IMP (0.2 mM), Table 17): 95.4 % of ALa
- Thres + IMP ([2]; + IMP (0.2 mM), Table 17): 0.275 mM
- Max resp ΔF/F +Alanine ([2]; +Alanine (20 mM), Table 18): 0.225
- Thres +Alanine ([2]; +Alanine (20 mM), Table 18): 3 mM
- EC50 [2, 3]: > 3000 µM
- Max resp % of Ala +IMP ([2]; +IMP (0.2 mM), Table 18): 95.4 % of Ala
- Max resp ΔF/F +IMP ([2]; +IMP (0.2 mM), Table 18): 1.175
- EC50 [2, 4]: 1100 µM
- EC50 [2, 5]: 600 µM
- EC50 [2, 6]: 1100 µM
- EC50 [2, 7]: 2000 µM
- EC50 [2, 8]: 2000 µM
- EC50 ([2]; read-out: EC50 + Alanine): > 3000 µM
